Source: ChEMBL document CHEMBL2331192, “Naphthalenyl derivatives for hitting P-gp/MRP1/BCRP transporters” (Bioorg Med Chem, 2013)

Experiments:
[1] = target: T1, Broad substrate specificity ATP-binding cassette transporter ABCG2 (Homo sapiens, UniProt Q9UNQ0); assay: Activity at BCRP (unknown origin) expressed in MDCK cells assessed as interference with rhodamine-123 efflux at 200 nM; assay type: cell-based; details: 0.2 µM
T1 sequence (Q9UNQ0 whole entry): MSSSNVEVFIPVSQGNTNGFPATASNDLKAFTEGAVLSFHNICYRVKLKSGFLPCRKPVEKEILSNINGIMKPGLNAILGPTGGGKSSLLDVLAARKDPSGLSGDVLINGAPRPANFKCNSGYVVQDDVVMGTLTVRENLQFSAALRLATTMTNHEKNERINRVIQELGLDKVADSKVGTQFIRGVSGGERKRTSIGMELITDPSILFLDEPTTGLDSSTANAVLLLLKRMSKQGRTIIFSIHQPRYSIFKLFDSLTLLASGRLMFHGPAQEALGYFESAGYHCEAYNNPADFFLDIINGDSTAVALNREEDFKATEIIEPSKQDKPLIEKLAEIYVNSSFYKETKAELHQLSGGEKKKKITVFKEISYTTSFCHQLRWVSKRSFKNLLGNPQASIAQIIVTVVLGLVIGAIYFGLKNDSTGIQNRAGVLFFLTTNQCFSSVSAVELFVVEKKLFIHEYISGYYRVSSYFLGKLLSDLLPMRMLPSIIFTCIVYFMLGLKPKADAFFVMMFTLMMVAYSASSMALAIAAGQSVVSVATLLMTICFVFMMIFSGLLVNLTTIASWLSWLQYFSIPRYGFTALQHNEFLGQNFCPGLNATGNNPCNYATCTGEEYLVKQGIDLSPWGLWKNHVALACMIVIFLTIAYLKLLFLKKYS

[2] = Apparent permeability across human Caco2 cells after 2 hrs; assay type: ADME, cell-based; details: Caco-2
[3] = target: T2, ATP-dependent translocase ABCB1 (Homo sapiens, UniProt P08183); assay: Activity at MDR1 (unknown origin) expressed in MDCK cells assessed as ATPase activity after 2 hrs by ATPlite assay; assay type: cell-based
[4] = target: T2, ATP-dependent translocase ABCB1; assay: Activity at MDR1 (unknown origin) expressed in MDCK cells assessed as interference with calcein-AM efflux incubated for 30 mins prior to calcein-Am addition measured after 30 mins by fluorometric analysis; assay type: cell-based
[5] = target: Multidrug resistance-associated protein 1 (Homo sapiens, UniProt P33527); assay: Activity at MRP1 (unknown origin) expressed in MDCK cells assessed as interference calcein-AM efflux incubated for 30 mins prior to calcein-Am addition measured after 30 mins by fluorometric analysis; assay type: cell-based
[6] = target: T1, Broad substrate specificity ATP-binding cassette transporter ABCG2; assay: Activity at BCRP (unknown origin) expressed in MDCK cells assessed as interference with rhodamine-123 efflux; assay type: cell-based

T2 sequence (P08183 whole entry): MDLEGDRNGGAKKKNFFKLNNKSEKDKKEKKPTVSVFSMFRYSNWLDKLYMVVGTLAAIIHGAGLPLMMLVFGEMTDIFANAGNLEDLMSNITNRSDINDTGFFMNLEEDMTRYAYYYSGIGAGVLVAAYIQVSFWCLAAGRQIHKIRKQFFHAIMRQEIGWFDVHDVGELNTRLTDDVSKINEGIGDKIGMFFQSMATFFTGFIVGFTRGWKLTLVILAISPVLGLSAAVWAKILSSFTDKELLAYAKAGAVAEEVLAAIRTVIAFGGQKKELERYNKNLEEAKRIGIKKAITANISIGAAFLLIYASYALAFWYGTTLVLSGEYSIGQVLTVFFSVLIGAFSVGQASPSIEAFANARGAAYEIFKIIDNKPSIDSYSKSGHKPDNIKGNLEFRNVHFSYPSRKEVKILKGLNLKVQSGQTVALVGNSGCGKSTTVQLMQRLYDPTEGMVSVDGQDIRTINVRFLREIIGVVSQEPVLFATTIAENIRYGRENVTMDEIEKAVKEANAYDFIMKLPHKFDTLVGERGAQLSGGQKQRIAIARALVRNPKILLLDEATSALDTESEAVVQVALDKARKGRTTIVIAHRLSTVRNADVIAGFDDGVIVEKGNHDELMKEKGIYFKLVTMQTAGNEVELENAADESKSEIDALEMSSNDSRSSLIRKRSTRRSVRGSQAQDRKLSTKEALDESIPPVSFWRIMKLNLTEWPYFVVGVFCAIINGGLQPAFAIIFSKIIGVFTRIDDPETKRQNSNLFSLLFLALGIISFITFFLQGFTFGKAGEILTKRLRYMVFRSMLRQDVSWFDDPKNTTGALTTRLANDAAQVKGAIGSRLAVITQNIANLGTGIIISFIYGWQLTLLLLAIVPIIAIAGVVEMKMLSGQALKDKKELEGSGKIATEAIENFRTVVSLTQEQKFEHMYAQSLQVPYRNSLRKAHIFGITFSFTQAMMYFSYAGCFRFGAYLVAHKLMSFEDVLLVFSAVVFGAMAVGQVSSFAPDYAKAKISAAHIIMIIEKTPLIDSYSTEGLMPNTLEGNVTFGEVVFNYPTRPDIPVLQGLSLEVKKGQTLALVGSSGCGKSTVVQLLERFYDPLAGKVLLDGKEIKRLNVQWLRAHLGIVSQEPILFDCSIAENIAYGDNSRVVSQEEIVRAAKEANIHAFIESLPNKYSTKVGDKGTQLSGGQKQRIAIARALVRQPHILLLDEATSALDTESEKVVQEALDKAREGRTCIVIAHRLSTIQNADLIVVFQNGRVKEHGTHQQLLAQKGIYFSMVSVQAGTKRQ
Multidrug resistance-associated protein 1, sequence (P33527 whole entry): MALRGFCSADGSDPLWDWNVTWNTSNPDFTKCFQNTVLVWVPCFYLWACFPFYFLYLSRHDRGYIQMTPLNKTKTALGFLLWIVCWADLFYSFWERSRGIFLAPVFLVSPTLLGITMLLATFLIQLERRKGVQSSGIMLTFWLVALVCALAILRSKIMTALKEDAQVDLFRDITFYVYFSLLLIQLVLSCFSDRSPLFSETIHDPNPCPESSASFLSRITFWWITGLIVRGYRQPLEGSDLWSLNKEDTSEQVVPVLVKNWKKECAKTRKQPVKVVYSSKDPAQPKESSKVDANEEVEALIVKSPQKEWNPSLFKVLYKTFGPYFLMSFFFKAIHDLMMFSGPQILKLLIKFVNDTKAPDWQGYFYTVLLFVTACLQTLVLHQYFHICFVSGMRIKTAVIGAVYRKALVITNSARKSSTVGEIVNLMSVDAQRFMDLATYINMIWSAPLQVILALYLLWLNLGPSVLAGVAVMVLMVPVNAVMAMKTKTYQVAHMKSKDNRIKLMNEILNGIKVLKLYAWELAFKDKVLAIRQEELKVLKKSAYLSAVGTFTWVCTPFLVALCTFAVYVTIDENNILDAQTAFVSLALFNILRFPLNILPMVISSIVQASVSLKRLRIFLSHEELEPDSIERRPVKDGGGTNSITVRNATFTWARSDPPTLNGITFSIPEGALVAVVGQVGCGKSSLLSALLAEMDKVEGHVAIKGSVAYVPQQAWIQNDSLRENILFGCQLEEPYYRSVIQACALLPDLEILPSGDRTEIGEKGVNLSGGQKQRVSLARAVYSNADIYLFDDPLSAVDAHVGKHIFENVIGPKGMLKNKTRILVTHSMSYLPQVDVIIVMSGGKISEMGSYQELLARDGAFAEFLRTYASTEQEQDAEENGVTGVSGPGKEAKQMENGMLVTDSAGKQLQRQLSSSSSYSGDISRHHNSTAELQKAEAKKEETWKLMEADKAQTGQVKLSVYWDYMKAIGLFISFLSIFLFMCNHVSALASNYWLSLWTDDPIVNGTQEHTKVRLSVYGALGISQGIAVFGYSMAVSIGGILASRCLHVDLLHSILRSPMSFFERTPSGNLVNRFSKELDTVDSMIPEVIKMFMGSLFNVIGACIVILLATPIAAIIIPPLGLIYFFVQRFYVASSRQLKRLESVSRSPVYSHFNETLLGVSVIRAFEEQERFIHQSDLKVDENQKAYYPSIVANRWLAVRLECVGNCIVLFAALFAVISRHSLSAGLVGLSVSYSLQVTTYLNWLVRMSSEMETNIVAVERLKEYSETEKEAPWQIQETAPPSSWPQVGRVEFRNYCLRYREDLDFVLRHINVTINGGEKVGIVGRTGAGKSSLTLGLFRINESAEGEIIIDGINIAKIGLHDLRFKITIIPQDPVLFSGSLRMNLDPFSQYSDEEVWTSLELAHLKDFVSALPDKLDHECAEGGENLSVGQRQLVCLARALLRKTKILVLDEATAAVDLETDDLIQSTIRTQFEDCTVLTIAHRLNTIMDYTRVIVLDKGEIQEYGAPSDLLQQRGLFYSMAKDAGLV

| SMILES | Activity [1] | Papp at 2 h [2] | Activity [3] | EC50 [4] | EC50 [5] | EC50 [6] |
| --- | --- | --- | --- | --- | --- | --- |
| COc1cc2c(cc1OC)CN(Cc1csc(-c3ccc4cc(Br)ccc4c3)n1)CC2 | Not Active | 0.59 ×10⁻⁶ cm/s | Active |  |  |  |
| COc1cc2c(cc1OC)CN(Cc1ccc(-c3ccc4ccccc4c3)o1)CC2 |  | 0.33 ×10⁻⁶ cm/s | Not Active | 7.1 µM | > 100 µM |  |
| COc1ccc2cc(-c3ccc(CN4CCc5cc(OC)c(OC)cc5C4)o3)ccc2c1 |  | 0.408 ×10⁻⁶ cm/s | Not Active | 2.9 µM | > 100 µM |  |
| COc1cc2c(cc1OC)CN(Cc1coc(-c3ccc4ccccc4c3)n1)CC2 |  | 0.038 ×10⁻⁶ cm/s | Not Active | 2.3 µM |  |  |
| COc1cc2c(cc1OC)CN(Cc1coc(-c3ccc4cc(F)ccc4c3)n1)CC2 |  | 0.082 ×10⁻⁶ cm/s | Not Active |  |  |  |
| COc1cc2c(cc1OC)CN(Cc1coc(-c3ccc4cc(Br)ccc4c3)n1)CC2 |  | 0.32 ×10⁻⁶ cm/s | Not Active | 1.8 µM | > 100 µM |  |
| COc1ccc2cc(-c3nc(CN4CCc5cc(OC)c(OC)cc5C4)co3)ccc2c1 | Not Active | 0.38 ×10⁻⁶ cm/s | Active | 0.6 µM | 14.7 µM |  |
| COc1cc2c(cc1OC)CN(Cc1coc(-c3ccc4cc(O)ccc4c3)n1)CC2 |  | 0.157 ×10⁻⁶ cm/s | Not Active |  |  |  |
| COc1cc2c(cc1OC)CN(Cc1csc(-c3ccc4ccccc4c3)n1)CC2 |  | 2.37 ×10⁻⁶ cm/s | Not Active | 3.5 µM | 3.2 µM |  |
| COc1cc2c(cc1OC)CN(Cc1csc(-c3ccc4cc(F)ccc4c3)n1)CC2 |  | 0.95 ×10⁻⁶ cm/s | Not Active | 4.8 µM | 8.8 µM |  |
| COc1ccc2cc(-c3nc(CN4CCc5cc(OC)c(OC)cc5C4)cs3)ccc2c1 | Not Active | 0.6 ×10⁻⁶ cm/s | Active |  |  |  |
| COc1cc2c(cc1OC)CN(CCCC1CCCc3c(OC)cccc31)CC2 (centres undefined) |  |  |  |  | > 100 µM |  |
| COc1cc2c(cc1OC)CN(Cc1ccc(-c3ccc(O)cc3)cc1)CC2 |  |  |  | 0.69 µM | 9.3 µM | 73 µM |
| COc1cc2c(cc1OC)CN(CC/C=C1\CCCc3c(OC)cccc31)CC2 |  |  |  | 1.5 µM | 2.8 µM |  |
